Assay results from the NIST ThermoML archive (doi:10.1021/acs.jced.7b00107).
Where “and” joins values, the source holds several entries; their conditions need not be identical. Equal entries are not always repeated.

Assay: molar heat capacity at constant pressure
Details: 101.33 kPa, Small (less than 1 g) adiabatic calorimetry

Cl.NC12CC3CC(CC(C3)C1)C2 [1-aminoadamantane hydrochloride]
Details | molar heat capacity at constant pressure
118.03 K, Crystal 3 | 98.29 J/K/mol
118.05 K, Crystal 3 | 97.56 J/K/mol
118.53 K, Crystal 3 | 100.2 J/K/mol
118.9 K, Crystal 3 | 105.3 J/K/mol
119.01 K, Crystal 3 | 104 J/K/mol
119.02 K, Crystal 3 | 105.6 J/K/mol
119.31 K, Crystal 3 | 108.3 J/K/mol
119.48 K, Crystal 3 | 110.1 J/K/mol
119.95 K, Crystal 3 | 112.9 J/K/mol
119.99 K, Crystal 3 | 111.4 J/K/mol
120 K, Crystal 2 | 94.01 J/K/mol
120 K, Crystal 3 | 94.01 J/K/mol
120.37 K, Crystal 2 | 108.5 J/K/mol
120.42 K, Crystal 2 | 108.5 J/K/mol
120.89 K, Crystal 2 | 104.8 J/K/mol
120.95 K, Crystal 2 | 106.2 J/K/mol
121.24 K, Crystal 2 | 112.4 J/K/mol
121.37 K, Crystal 2 | 108.6 J/K/mol
121.81 K, Crystal 2 | 125.5 J/K/mol
121.84 K, Crystal 2 | 120 J/K/mol
121.91 K, Crystal 2 | 126.5 J/K/mol
122.28 K, Crystal 2 | 146.1 J/K/mol
122.69 K, Crystal 2 | 168 J/K/mol
122.76 K, Crystal 2 | 187.7 J/K/mol
123.07 K, Crystal 1 | 165.2 J/K/mol and 227.7 J/K/mol
123.1 K, Crystal 1 | 96.21 J/K/mol
123.1 K, Crystal 2 | 96.21 J/K/mol
123.13 K, Crystal 1 | 176.4 J/K/mol
123.47 K, Crystal 1 | 148 J/K/mol
123.61 K, Crystal 1 | 138.3 J/K/mol
123.92 K, Crystal 1 | 106.3 J/K/mol
124.41 K, Crystal 1 | 99.7 J/K/mol
124.5 K, Crystal 1 | 100.8 J/K/mol
124.56 K, Crystal 1 | 99.57 J/K/mol
124.9 K, Crystal 1 | 99.18 J/K/mol
125.12 K, Crystal 1 | 99.65 J/K/mol
125.39 K, Crystal 1 | 98.8 J/K/mol
125.57 K, Crystal 1 | 98.89 J/K/mol
125.88 K, Crystal 1 | 98.68 J/K/mol
126.03 K, Crystal 1 | 99.11 J/K/mol
126.58 K, Crystal 1 | 99.15 J/K/mol
127.3 K, Crystal 1 | 99.61 J/K/mol
127.57 K, Crystal 1 | 99.64 J/K/mol
129.1 K, Crystal 1 | 100.5 J/K/mol
129.28 K, Crystal 1 | 100.6 J/K/mol
130 K, Crystal 1 | 101 J/K/mol
130.63 K, Crystal 1 | 101.5 J/K/mol
131.26 K, Crystal 1 | 101.8 J/K/mol
132.16 K, Crystal 1 | 102.5 J/K/mol
133.24 K, Crystal 1 | 103.2 J/K/mol
133.7 K, Crystal 1 | 103.5 J/K/mol
135.22 K, Crystal 1 | 104.5 J/K/mol
135.23 K, Crystal 1 | 104.6 J/K/mol
136.76 K, Crystal 1 | 105.6 J/K/mol
137.2 K, Crystal 1 | 105.9 J/K/mol
138.29 K, Crystal 1 | 106.7 J/K/mol
139.19 K, Crystal 1 | 107.3 J/K/mol
139.83 K, Crystal 1 | 107.7 J/K/mol
140 K, Crystal 1 | 107.9 J/K/mol
141.18 K, Crystal 1 | 108.6 J/K/mol
141.36 K, Crystal 1 | 108.7 J/K/mol
142.89 K, Crystal 1 | 109.4 J/K/mol
143.17 K, Crystal 1 | 109.5 J/K/mol
144.42 K, Crystal 1 | 109.9 J/K/mol
145.16 K, Crystal 1 | 110.1 J/K/mol
145.95 K, Crystal 1 | 110.4 J/K/mol
147.16 K, Crystal 1 | 110.9 J/K/mol
147.49 K, Crystal 1 | 111.1 J/K/mol
149.02 K, Crystal 1 | 111.7 J/K/mol
149.15 K, Crystal 1 | 111.8 J/K/mol
150 K, Crystal 1 | 112.2 J/K/mol
150.57 K, Crystal 1 | 112.4 J/K/mol
151.15 K, Crystal 1 | 112.7 J/K/mol
152.11 K, Crystal 1 | 113.3 J/K/mol
153.15 K, Crystal 1 | 113.8 J/K/mol
153.64 K, Crystal 1 | 114.2 J/K/mol
155.14 K, Crystal 1 | 114.9 J/K/mol
155.18 K, Crystal 1 | 114.9 J/K/mol
156.72 K, Crystal 1 | 115.7 J/K/mol
157.14 K, Crystal 1 | 116.1 J/K/mol
158.25 K, Crystal 1 | 116.7 J/K/mol
159.14 K, Crystal 1 | 117.2 J/K/mol
159.79 K, Crystal 1 | 117.6 J/K/mol
160 K, Crystal 1 | 117.7 J/K/mol
161.14 K, Crystal 1 | 118.4 J/K/mol
161.32 K, Crystal 1 | 118.5 J/K/mol
162.86 K, Crystal 1 | 119.5 J/K/mol
163.14 K, Crystal 1 | 119.6 J/K/mol
164.39 K, Crystal 1 | 120.4 J/K/mol
165.15 K, Crystal 1 | 120.8 J/K/mol
165.92 K, Crystal 1 | 121.2 J/K/mol
167.15 K, Crystal 1 | 122 J/K/mol
167.45 K, Crystal 1 | 122.3 J/K/mol
168.98 K, Crystal 1 | 123.2 J/K/mol
169.15 K, Crystal 1 | 123.3 J/K/mol
170 K, Crystal 1 | 123.8 J/K/mol
170.51 K, Crystal 1 | 124.1 J/K/mol
171.16 K, Crystal 1 | 124.6 J/K/mol
172.04 K, Crystal 1 | 125 J/K/mol
173.17 K, Crystal 1 | 125.8 J/K/mol
173.57 K, Crystal 1 | 126 J/K/mol
175.1 K, Crystal 1 | 127 J/K/mol
175.17 K, Crystal 1 | 127 J/K/mol
176.62 K, Crystal 1 | 127.9 J/K/mol
177.18 K, Crystal 1 | 128.3 J/K/mol
178.14 K, Crystal 1 | 128.9 J/K/mol
179.19 K, Crystal 1 | 129.6 J/K/mol
179.67 K, Crystal 1 | 130 J/K/mol
180 K, Crystal 1 | 130.1 J/K/mol
181.19 K, Crystal 1 | 130.9 J/K/mol
181.2 K, Crystal 1 | 130.9 J/K/mol
182.7 K, Crystal 1 | 131.9 J/K/mol
183.21 K, Crystal 1 | 132.2 J/K/mol
184.22 K, Crystal 1 | 132.8 J/K/mol
185.23 K, Crystal 1 | 133.5 J/K/mol
185.74 K, Crystal 1 | 133.8 J/K/mol
187.24 K, Crystal 1 | 134.8 J/K/mol
187.25 K, Crystal 1 | 134.8 J/K/mol
188.76 K, Crystal 1 | 135.8 J/K/mol
189.25 K, Crystal 1 | 136.2 J/K/mol
190 K, Crystal 1 | 136.6 J/K/mol
190.27 K, Crystal 1 | 136.9 J/K/mol
191.27 K, Crystal 1 | 137.4 J/K/mol
191.79 K, Crystal 1 | 137.9 J/K/mol
193.28 K, Crystal 1 | 138.8 J/K/mol
193.3 K, Crystal 1 | 138.9 J/K/mol
194.8 K, Crystal 1 | 139.9 J/K/mol
195.3 K, Crystal 1 | 140.1 J/K/mol
